Values joined by “and” are separate entries in the source; they are usually repeats but may differ in a detail not shown here. Equal values may be shown once. Read-outs that look alike come from different tables or passages of the source.
Key:
[1] = system: rice (Koshihikari); experiment: Leaf Area Index of rice in paddy field after allantoin application to seedlings (Experiment 9); type: in vivo; details: for LAI (Leaf Area Index): 1 mM allantoin 3 L per nursery box on Day 26 after sowing, two plant bodies
Procedure: A 1 mM allantoin aqueous solution or water was applied in an amount of 3 L each to the seedlings of rice (Koshihikari) on Day 26 after sowing (the size of a nursery box: 280×580×28 (mm) (depth×width×height)). A total of the applied dose of allantoin per unit area, which was applied for a single application in Experiment 9, was 3.0 g/m^2 (1.05 g/m^2 relative to allantoin nitrogen) in the 1 mM allantoin group.
Twelve hours after the application, the seedlings were planted in a paddy field, and were then allowed to grow for 55 days and for 63 days. Thereafter, using a leaf area measurement apparatus LAI-2200 (MEIWAFOSIS CO., LTD.), Leaf Area Index (LAI) which indicates the leaf area under conditions in which the plant still grows in the field, was non-destructively measured. LAI was obtained from two plant bodies in each of the allantoin group and the water group (n=2).

[2] = system: HSF3 (AGI code: AT5G16820); experiment: HSF3 gene expression, quantitative PCR, cultivation in allantoin-containing medium (Experiment 5); type: in vivo, Arabidopsis thaliana; details: 1 mM allantoin in ½ MS solid medium, 14 days, leaves and stems, reference gene ACT2
Procedure: (§1) Seeds of wild-type Arabidopsis thaliana line (Columbia-0) were sterilized in 2.5% (v/v) sodium hypochlorite, sowed in the ½ MS solid medium described in Experiment 1 (Table 1) (the medium was supplemented with 1 mM allantoin; allantoin was not added to the control group: a deep petri dish with a diameter of 90 mm and a height of 20 mm), and then allowed to grow under long-day conditions (in an incubator at 5,000 Lux, a light period of 16 hours and a dark period of 8 hours, 22° C.) for 14 days. Using a commercialized kit, RNA extraction from leaves and stems of Arabidopsis thaliana (NucleoSpin RNAII, MACHEREY-NAGEL), reverse transcription (ReverTra Ace qPCR RT Master Mix, TOYOBO), and quantitative PCR (KAPA SYBR FAST qPCR Master Mix, KAPABIOSYSTEMS) were carried out. As a reference gene, ACT2 (AGI code: AT3G18780) was used. As a result, the relative expression level of DREB2A (AGI code: AT5G05410; SEQ ID NO: 1) and that of HSF3 (AGI code: AT5G16820; SEQ ID NO: 2) were 2.2 times and […] greater than the expression level of the control group, respectively.

[3] = system: Brassica chinensis komatsuna; experiment: High temperature stress resistance of Brassica chinensis komatsuna via allantoin application (Experiment 3); type: in vivo, Brassica chinensis komatsuna (variety: Rakuten); details: 1 mM allantoin 40 ml/pot 6 and 13 days after sowing, 45° C. for 1 hour
Procedure: A 5-cm polypot was mounted on a balance dish BD-2 (AS ONE Corporation), 70 ml of vermiculite (Protoleaf Inc.) was introduced thereinto, 80 ml of culture soil (TAKII & CO., LTD.) was further introduced thereinto, 3 seeds of Brassica chinensis komatsuna (variety: Rakuten, TAKII & CO., LTD.) were sowed at the center of the pot, and 20 ml of vermiculite was further introduced thereinto, so as to cover the soil. Thereafter, 50 ml of tap water was supplied to the balance dish two times. The polypot (together with the balance dish) was mounted on a bat and introduced into an incubator at 22° C. and 10,000 Lux for a light period of 12 hours and a dark period of 12 hours, so as to initiate cultivation. The day on which cultivation was initiated was designated as Day 0 after sowing.
Germination was observed 3 days after sowing. While leaving one plant in each pot, other plants were removed therefrom 6 days after sowing. […]
(§2) The “viability” indicates the proportion of the number of survived plants relative to the number of plants subjected to the heat shock treatment. The viability was calculated by regarding plants that would no longer grow (i.e., the plants with the youngest leaves suffering from physical damage, such as whitening, withering, or curling of leaves) as plants that are not survived.

[4] = system: creeping bentgrass; type: in vivo, creeping bentgrass (variety: 007); details: 1 mM allantoin 40 ml/pot on Days 7, 10 and 13; measured Day 13 after sowing; mean of 20 grasses per pot
Procedure: (§3) A polypot with 5 cm each side was placed on a balance dish BD-2 (AS ONE Corporation), and 120 ml of joint- and bed-soil for turf grass (TACHIKAWA HEIWA NOUEN CO., LTD.) was then added into the pot. Thereafter, 140 mg of seeds of creeping bentgrass (variety: 007, Power Shop FUJI) was seeded on the soil, and 3 ml of the soil was further added onto the seeds. Thereafter, 10 ml of tap water was supplied to the balance dish. The polypot (together with the balance dish) was placed on a tray, and was then placed in an artificial climate chamber having a temperature of 20° C., a light intensity of 300 μmol/m^2/s, a light period of 16 hours, a dark period of 8 hours, and a humidity of 70%, and thereafter, cultivation was initiated. The day on which cultivation was initiated was defined as Day 0 after sowing. On Day 2 after sowing, 40 ml/pot tap water was applied to all pots. On Day 5 after sowing, germination was confirmed.
On Days 7, 10 and 13 after sowing, tap water (hereinafter referred to as a “water group”) or a 1 mM allantoin aqueous solution (hereinafter referred to as an “allantoin group”) was applied, in an amount of 40 ml/pot, to individual experiment groups. […]
On Day 13 after sowing, 20 turf grasses were selected from each pot, and the grass height and fresh weight of each grass were then measured. Based on the measured values, a mean value was calculated. […]

[5] = system: Arabidopsis thaliana; experiment: High temperature stress resistance of Arabidopsis thaliana cultivated in allantoin-containing medium (Experiment 6); type: in vivo; details: 10 μM, 100 μM or 1,000 μM allantoin in ½ MS solid medium; 45° C. 105 minutes; grown 1 week
Procedure: The wild-type (WT) line of Arabidopsis thaliana (L.) Heynh., accession Columbia-0 described in Experiment 1 was used.
The ½ MS solid medium described in Experiment 1 (Table 1) was used (10 μM, 100 μM, or 1,000 μM allantoin was further added to the allantoin-supplemented group, allantoin was not added to the allantoin-free group, a deep sterilized petri dish No. 903 VALMARK; Ina-Optika Corporation).
(5) In the petri dish, a circular accommodation part (a plane view) is divided into 2 semicircular compartments by a partition wall extended toward a diametrical direction. The allantoin-free ½ MS solid medium was accommodated in one of the compartments of the petri dish, the allantoin-supplemented ½ MS solid medium was accommodated in another compartment, and 15 seeds were sowed in each compartment (i.e., 30 seeds in total per petri dish) (FIG. 5A).
(8) The resultant was transferred to a culture chamber and cultured therein at 22° C. under long-day conditions (light application for 16 hours under fluorescent light: 0.07 mmol photons […] s^−1) for 7 days. […]
(10) Thereafter, the petri dish was cooled in an incubator at 23° C. for 10 to 15 minutes, and the plants were then allowed to grow again for 1 week under the conditions (8). […] The viability was evaluated on the basis of such phenomenon. […]

[6] = system: wild-type Arabidopsis thaliana; details: allantoin administered to wild-type Arabidopsis thaliana; cited from earlier work
[7] = system: DREB2A (AGI code: AT5G05410); experiment: DREB2A gene expression, quantitative PCR, cultivation in allantoin-containing medium (Experiment 5); type: in vivo, Arabidopsis thaliana; details: 1 mM allantoin in ½ MS solid medium, 14 days, leaves and stems, reference gene ACT2
Procedure: as §1

[8] = system: Arabidopsis thaliana; details: application of allantoin to Arabidopsis thaliana; cited from earlier work
[9] = system: onion; experiment: High temperature stress resistance of onion via allantoin application (Experiment 2); type: in vivo, onion (variety: Neoearth); details: for viability 3 days after the heat shock treatment: 1 mM allantoin 40 ml/pot 6 days after sowing
Procedure: A 5-cm polypot was mounted on a balance dish BD-2 (AS ONE Corporation), 70 ml of vermiculite (Protoleaf Inc.) was introduced thereinto, 80 ml of culture soil (TAKII & CO., LTD.) was further introduced thereinto, 3 seeds of onion (variety: Neoearth; TAKII & CO., LTD.) were sowed at 3 positions, and 20 ml of vermiculite was further introduced thereinto, so as to cover the soil. Thereafter, 50 ml of tap water was supplied to the balance dish two times. The polypot (together with the balance dish) was mounted on a bat, and the resultant was then introduced into an incubator at 22° C. and 10,000 Lux for a light period of 12 hours and a dark period of 12 hours, so as to initiate cultivation. The day on which cultivation was initiated was designated as Day 0 after sowing. Germination was observed 5 days after sowing. While leaving 3 plants in each pot (i.e., a plant in each position), other plants were removed therefrom 6 days after sowing.
Tap water or an aqueous solution of 1 mM allantoin was applied to each test group (40 ml/pot) 6 days after sowing (hereafter, referred to as the “water treatment group” or the “allantoin treatment group,” respectively). Tap water was applied to all the pots (40 ml/pot) 11 days after sowing. The pots mounted on the bats were introduced into the incubator 13 days after sowing (at the 2-true-leaf stage in the case of onions), and the plants were exposed to high temperature stress at 45° C. for 1 hour, 1.5 hours, and 2 hours. Soil in the pots was sufficiently humidified before and after high temperature stress application. After the completion of the high temperature stress treatment, the temperature in the incubator was cooled to 22° C., and cultivation was continued. Water was supplied 2 days after the heat shock treatment (40 ml/pot). Thereafter, water was supplied in an amount of 40 ml per pot at intervals of 2 days.
as §2

[10] = system: creeping bentgrass; type: in vivo, creeping bentgrass (variety: 007); details: measured Day 15
Procedure: as §3
On Days 6, 11 and 13 after sowing, tap water (hereinafter referred to as a “water group”) or a 0.5 or 1 mM allantoin aqueous solution (hereinafter referred to as an “allantoin group”) was applied, in an amount of 40 ml/pot, to individual experiment groups. On and after Day 13 after sowing, a difference was found in the growth of turf glasses among individual groups. On Day 15, 20 turf grasses were selected from each pot, and the grass height and fresh weight of each grass were then measured. Based on the measured values, a mean value was calculated.

[11] = system: rice; details: rice seeds immersed in 300 mg/L allantoin solution for 24 hours; cited from earlier work
[12] = 0.5 mM allantoin 40 ml/pot on Days 6, 11 and 13
[13] = 1 mM allantoin 40 ml/pot on Days 6, 11 and 13

NC(=O)NC1NC(=O)NC1=O (racemic) [Allantoin]
LAI (Leaf Area Index) ([1]; 55th day in paddy field): 1.94 m^2/m^2 and 2.04 m^2/m^2
LAI (Leaf Area Index) ([1]; 63rd day in paddy field): 2.71 m^2/m^2 and 2.82 m^2/m^2
LAI smaller than the LAI of the water group ([1]; 55th day): approximately 25%
LAI smaller than the LAI of the water group ([1]; 63rd day): approximately 10%
relative expression level of HSF3 versus control group [2]: 0.7 times
viability 7 days after the heat shock treatment [3]: 100%
Fresh weight [4]: 2.9 mg
Grass height [4]: 5.6 cm
resistance to high temperature stress (viability) [5]: has resistance to high temperature stress
production of abscisic acid [6]: promoted
relative expression level of DREB2A versus control group [7]: 2.2 times
plant growth [8]: promoted
viability 3 days after the heat shock treatment ([9]; 45° C. for 1 hour): 66.7%
viability 3 days after the heat shock treatment ([9]; 45° C. for 1.5 hours): 33.3%
viability 3 days after the heat shock treatment ([9]; 45° C. for 2 hours): 11.1%
viability 8 days after heat shock treatment ([9]; 1 mM allantoin, 45° C. for 1, 1.5 and 2 hours, compared with 3 days): same viability
Fresh weight [10, 12]: 3 mg
Grass height [10, 12]: 5.8 cm
Fresh weight [10, 13]: 3.1 mg
Grass height [10, 13]: 5.9 cm
height of the seedlings, number of roots and fresh weight of the seedlings versus water control [11]: increased
